Legend:
[1] = Incubation of MPZ in human intestine S9; type: in vitro ADME; conditions: 2.5 µM MPZ, human intestine S9 1 mg/ml, NADPH, 60 min
Procedure: (§1) An initial experiment was conducted with S9 fractions from liver and intestine to assess the role of liver and intestinal enzymes in the metabolism of MPZ. The reaction mixture contained 2.5 µM MPZ, pooled human liver or intestine S9 fraction (1 mg/ml S9 protein), 100 mM KPi buffer (pH 7.4). The reaction mixture was pre‐incubated for 3–5 min at 37°C in a humidified incubator filled with 5% CO2 followed by the addition of NADPH (1 mM) to initiate the reaction. The reaction was incubated for 0 and 60 min. The total percentage of organic solvent in the incubation mixture was ≤0.1%. The reactions were terminated by the addition of sample mixture of acetonitrile and ethanol (90:10, v/v). The positive control substrate, 7‐EC, was incubated in triplicate in an identical manner as MPZ for S9 fractions.
(§2) The degree of disappearance of each analyte was evaluated by comparing the PAR of analyte to IS or concentration in different sampling time points to the PAR of time zero, (t = 0, 100%). The percent of parent remaining values were calculated according to the following equation: %parentremaining=(meanconcentrationorPARateachsamplingtimepoint/meanconcentrationorPARoftimezero)×100

[2] = target: T1, rhFMO1 (Homo sapiens, UniProt Q01740); test: Incubation of MPZ with recombinant FMO: FMO1; type: in vitro ADME; conditions: 1 µM MPZ, pH 8.4
T1 construct: purchased Corning Inc
T1 sequence (Q01740 1-532): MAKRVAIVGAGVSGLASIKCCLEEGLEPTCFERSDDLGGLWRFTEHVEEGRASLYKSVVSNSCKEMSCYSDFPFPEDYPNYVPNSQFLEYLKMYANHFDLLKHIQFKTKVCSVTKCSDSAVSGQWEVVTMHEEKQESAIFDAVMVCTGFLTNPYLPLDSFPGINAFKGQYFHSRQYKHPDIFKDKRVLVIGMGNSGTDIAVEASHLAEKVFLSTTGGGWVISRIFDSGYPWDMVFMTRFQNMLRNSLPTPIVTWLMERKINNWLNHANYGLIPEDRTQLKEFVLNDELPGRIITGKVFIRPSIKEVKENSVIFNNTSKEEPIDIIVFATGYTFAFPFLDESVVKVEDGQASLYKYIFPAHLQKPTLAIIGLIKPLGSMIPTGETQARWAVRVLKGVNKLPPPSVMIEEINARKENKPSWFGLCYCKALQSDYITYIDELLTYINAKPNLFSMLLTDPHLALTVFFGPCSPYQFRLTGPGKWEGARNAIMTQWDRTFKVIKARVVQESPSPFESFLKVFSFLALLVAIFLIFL
Procedure: (§3) MPZ at 1.0 µM was incubated in triplicate with individual recombinant FMO (Supersomes™ for FMO 1, FMO3, and FMO5). Protein concentrations for all rFMO isoforms were 0.05 mg/ml. A positive control (benzydamine, 100 µM) was incubated for 20 min. The reaction mixture containing MPZ or FMO substrate, KPi buffer (pH 8.4), and FMO Supersomes™ was pre‐incubated at 37°C for 3–5 min. All other procedures were the same as described previously. The negative control reactions were incubated absence of NADPH.

[3] = target: T2, rhFMO5 (Homo sapiens, UniProt P49326); test: Incubation of MPZ with recombinant FMO: FMO5; type: in vitro ADME; conditions: 1 µM MPZ, pH 8.4
T2 construct: purchased Corning Inc
T2 sequence (P49326 1-533): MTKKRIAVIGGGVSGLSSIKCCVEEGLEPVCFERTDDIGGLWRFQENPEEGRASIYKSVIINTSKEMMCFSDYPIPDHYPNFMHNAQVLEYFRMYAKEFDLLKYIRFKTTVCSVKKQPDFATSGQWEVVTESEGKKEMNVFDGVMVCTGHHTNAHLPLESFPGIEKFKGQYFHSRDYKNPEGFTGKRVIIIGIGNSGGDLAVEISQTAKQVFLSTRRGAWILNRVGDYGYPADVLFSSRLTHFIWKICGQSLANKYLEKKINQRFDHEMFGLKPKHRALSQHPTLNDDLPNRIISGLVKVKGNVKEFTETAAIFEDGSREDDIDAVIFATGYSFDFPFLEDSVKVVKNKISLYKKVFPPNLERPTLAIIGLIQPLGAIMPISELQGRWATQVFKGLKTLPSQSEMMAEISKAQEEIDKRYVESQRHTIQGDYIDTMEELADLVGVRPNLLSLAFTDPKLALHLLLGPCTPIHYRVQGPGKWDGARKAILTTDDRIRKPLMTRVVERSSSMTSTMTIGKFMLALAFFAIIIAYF
Procedure: as §3

[4] = Incubation of MPZ in human liver S9; type: in vitro ADME; conditions: 2.5 µM MPZ, human liver S9 1 mg/ml, NADPH, 60 min
Procedure: as §1, §2

[5] = Incubation of MPZ with human kidney microsomes (HKM); type: in vitro ADME; conditions: pH 8.4, NADPH, HKM 0.5 mg/ml, 60 min
Procedure: MPZ, at 1.0 and 10.0 µM, was incubated with HLM or HKM to determine the contribution of microsomal FMOs on the metabolism of MPZ.
A reaction mixture containing KPi buffer (pH 8.4), HLM or HKM (0.5 mg/ml protein) and MPZ (1.0 and 10.0 µM) was pre‐incubated for 3–5 min at 37°C. The reaction was initiated by the addition of NADPH into the reaction mixture. The reaction was conducted for 0 and 60 min. A positive control (benzydamine, 100 µM) was incubated in duplicate for 0 and 20 min. Parallel incubation was conducted by adding 1 mM methimazole, a non‐specific FMO inhibitor, under identical conditions. Heat‐inactivated microsomes (50°C for at least 5 min) was incubated under identical conditions negative control. All other procedures were the same as described previously.

[6] = system: human D2 receptor; parameters: method as in earlier work; conditions: cited from earlier work
[7] = system: human liver microsomal amidase; test: Incubations with heat-treated HLM for microsomal hydrolase/amidase activity, with and without BNPP; type: in vitro ADME; conditions: 10 µM MPZ, pH 7.4, 8.4 and 9.4, 60 min
Procedure: Prior to the reaction for amidase activity, the reaction mixture containing KPi buffer (pH 7.4, 8.4, or 9.4) and HLM was pre‐incubated at 50°C for 5 min to inactivate CYP and FMO activities in HLM. The mixture was placed on ice to cool down. An aliquot was taken out which was considered as t = 0 min incubation. Then 10 µM MPZ was added into the remaining mixture and incubated at 37°C on an orbital shaker for 60 min. A parallel set of incubations was conducted with 10 µM MPZ in the presence at 2 and 16 µM, of BNPP (a known inhibitor of amidase). All reactions were in triplicate. The total percentage of organic solvent in the incubation mixture was ≤0.1%. The reactions were terminated by the addition of chilled acetonitrile: methanol, 90:10, (v/v). The samples were vortex‐mixed and stored at ≤−70°C and were subjected analyzed by LC–MS/MS.

Structure (SMILES)	metabolism in human intestine S9 [1]	metabolism by rhFMO1 [2]	metabolism by rhFMO5 [3]	percent of MPZ disappeared [4]	metabolite formation in HKM [5]	fold less potent at the human D2 receptor compared to the parent [6]	pH dependence of MPZA formation in HLM [7]
CS(=O)(=O)c1ccc2c(c1)N(CCCN1CCC(C(N)=O)CC1)c1ccccc1S2 [MPZ, metopimazine]	virtually no metabolism	did not metabolize MPZ	did not metabolize MPZ	approximately 30%	did not produce any metabolites		
CS(=O)(=O)c1ccc2c(c1)N(CCCN1CCC(C(=O)O)CC1)c1ccccc1S2 [MPZA, metopimazine acid]						about 200 fold	faster the higher the pH
